Measurements reported in article PMC5917093, “Brain Transport Profiles of Ginsenoside Rb1 by Glucose Transporter 1: In Vitro and in Vivo” (Frontiers in Pharmacology, 2018).

What was measured:
rBMEC = assay: Cell viability assessment, CCK-8 assay; details: 37°C, 4 h
Method: The cytotoxic effects of the test agents used in this study were assessed on confluent monolayers of cells in 96-well plates using a CCK-8 assay. Cells were subjected to a 200 μL/well of each drug in Hanks’ solution at the concentrations used in the experiments, followed by incubation for another 4 h. Then, 10 μL Cell Counting Kit-8 (CCK8, Dojindo) solution was added to each well. Plates were incubated for additional 4 h. Absorbance readings at 450 nm were obtained using a spectrophotometer (Thermo Varioskan) and expressed as percentage viability compared to control untreated cells.

[1] = tested on: rBMEC (primary cultured rat brain microvascular endothelial cells); assay: Transporter inhibition assays: Rb1 uptake into rBMEC in presence of inhibitors; type: in vitro ADME; details: Rb1 60 μg/mL, 37°C; for effect on Rb1 uptake into rBMEC versus control: 120 min
Method: In the present study, the uptake at 120 min was selected to measure the effect of test agents on the transport characteristics of Rb1. Rb1 concentration was set to be 60 μg/mL. The rBMEC was seeded out in 6-well plates, allowed to adhere, and grown to confluency. To study the transport mechanisms, uptake of Rb1 was carried out in the presence of a metabolic energy inhibitor and a series of established transporter inhibitors. The impact of these inhibitors on Rb1 uptake by rBMEC was assessed at the steady state at 37°C. NaN3 (500 μM), probenecid (100 μM), CsA (25, 50, and 100 μM), or phloretin (5 μM) was added to inhibit different transport systems. In the inhibition study, to further assess the effect of phloretin on Rb1 uptake into rBMEC, the cells were incubated at 37°C at a set time (5, 15, 30, 60, and 120 min). Uptake was measured after incubation with Rb1 in the presence of phloretin at the concentration of 5 μM.
HPLC–MS/MS was composed by a Shimadzu LC-20A chromatographic system and an API 4000 mass spectrometer equipped with electrospray ionization (ESI) source system. MS/MS detection was performed on an API 4000 mass spectrometer using multiple reaction monitoring (MRM) mode by monitoring the fragmentation of m/z 1107.6 → 179.0 for Rb1 and m/z 779.4 → 345.2 for digoxin (IS). Chromatographic separations were carried out on a Shim-pack XD-ODS column (2.0 mm × 30 mm, 2.2 μm) with a Shim-pack GVD-ODS (2.0 mm × 5 mm, 4.6 μm) guard column (Shimadzu, Japan) at a flow rate of 0.28 mL/min using 10 mM acetic acid in water (phase A) and methanol (phase B) as mobile phase. A linear step gradient elution was performed as followed: phase B was increased from 45 to 90% within the first 3 min, and decreased to 45% within the next 3 min (total gradient time: 6 min). A 10 μL sample was injected into the system with the auto-sample conditioned at 4°C and column temperature maintained at 40°C.
The biological samples (100 μL) were placed in a 1.5 mL Eppendorf tube, and mixed with 10 μL IS solution (500 ng/mL) for 3 min by vortexing. The mixture was extracted with methanol (0.9 mL) by vortexing, and then centrifuged at 14,000 rpm for 5 min. The supernatant (0.8 mL) was transferred to a new 1.5 mL Eppendorf tube and evaporated to dryness under vacuum. The dried residue was reconstituted with 100 μL methanol, vortex-mixed for 30 s, and centrifuged at 14,000 rpm for 5 min. Finally, 10 μL of the supernatant liquid was immediately subjected to HPLC–MS/MS analysis. The system control and data analysis were performed by AB Sciex Analyst software (the software version: Analyst 1.5.1).

GLUT1 [2] = assay: Western blot, GLUT1 expression in rBMEC; type: cell-based, rat; details: phloretin 5 μM together with Rb1 60 μg/mL; at 30, 60 and 120 min
Method: (§1) Total proteins were extracted and 60 μg of each protein was separated on SDS-10% polyacrylamide gels. Proteins on the gel were transferred to PVDF membrane (Merck-Millipore). Blots were blocked with 5% skimmed milk dissolved in PBS containing 0.1% Tween-20 (PBST) for 2 h at room temperature. The membrane was incubated with primary antibody at 4°C overnight. Washing of the blots with PBST three times was followed by incubation with horseradish peroxidase-conjugated secondary antibody for 2 h at room temperature. After washing, the chemiluminescence signal was monitored using the ChemiDoc XRS+ system (Bio-Rad, Hercules, CA, United States). Densitometric semi-quantitative analysis of protein bands was carried out using Image J.

GLUT3 = assay: Western blot, GLUT3 expression in rBMEC; type: cell-based, rat; details: phloretin 5 μM together with Rb1 60 μg/mL
Method: as §1

GLUT1 [3] = assay: Western blot, GLUT1 expression in normal rat brain; type: in vivo; details: phloretin 5 mg/kg i.v. for 1 week, P < 0.05
Method: Rats were randomly divided into two groups in 36 of each group. One group served as the control and another group were treated with phloretin. Dose of phloretin was set to be 5 mg/kg. Rb1 (10 mg/kg, i.v.) was administered to the experimental rats after i.v. administration of phloretin or saline for consecutive 1 week. Six rats from each group were selected and the blood samples were collected into heparinized Eppendorf tubes via the abdominal aorta at 0.5, 2, and 6 h after Rb1 administration. Then, brain samples were immediately collected. The plasma samples were obtained by centrifuging at 1000 × g for 10 min. Plasma and brain samples were frozen at -80°C until analysis. Total proteins were extracted and 60 μg of each protein was separated on SDS-10% polyacrylamide gels. Proteins on the gel were transferred to PVDF membrane (Merck-Millipore). Blots were blocked with 5% skimmed milk dissolved in PBS containing 0.1% Tween-20 (PBST) for 2 h at room temperature. The membrane was incubated with primary antibody at 4°C overnight. […] After washing, the chemiluminescence signal was monitored using the ChemiDoc XRS+ system (Bio-Rad, Hercules, CA, United States). Densitometric semi-quantitative analysis of protein bands was carried out using Image J.

GLUT1 [4] = target: T1, GLUT1 (Rattus norvegicus, UniProt P11167); assay: Competitive inhibition of Rb1 uptake by rBMEC by D-glucose (Lineweaver-Burk plot); type: in vitro ADME; details: 100 mM D-glucose, Rb1 30-960 μg/mL, 37°C, 120 min
T1 construct: GLUT1, as the major GLUT isoform expressed in brain endothelial cells; endogenous in cells; host or cells: primary cultured rat brain microvascular endothelial cells (rBMEC)
T1 sequence (P11167 1-492): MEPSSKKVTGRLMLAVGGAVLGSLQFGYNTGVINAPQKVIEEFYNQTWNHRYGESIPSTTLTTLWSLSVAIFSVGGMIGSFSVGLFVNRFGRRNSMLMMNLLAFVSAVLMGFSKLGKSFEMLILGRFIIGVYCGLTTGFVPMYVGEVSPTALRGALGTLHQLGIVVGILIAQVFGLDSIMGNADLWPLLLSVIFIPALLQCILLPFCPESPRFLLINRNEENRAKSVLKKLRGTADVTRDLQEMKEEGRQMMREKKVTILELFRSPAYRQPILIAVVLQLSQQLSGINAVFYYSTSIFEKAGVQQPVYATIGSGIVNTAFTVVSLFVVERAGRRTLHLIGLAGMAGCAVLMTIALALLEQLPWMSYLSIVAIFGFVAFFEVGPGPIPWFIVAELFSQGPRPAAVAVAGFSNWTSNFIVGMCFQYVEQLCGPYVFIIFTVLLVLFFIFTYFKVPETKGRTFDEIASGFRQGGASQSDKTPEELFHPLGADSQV
Method: In the competition experiments, Rb1 uptake (30–960 μg/mL) was measured in the absence and presence of D-glucose (100 mM) which is a principal physiological substrate of GLUT1. Briefly, cells were grown in 6-well plates for 7 days before their medium was removed, pre-incubated with warm glucose-free Hanks’ solution for 30 min. Subsequently, samples and controls were treated as described transport studies, but this time in addition with 100 mM D-glucose to the various concentrations of Rb1 in glucose-free Hanks’ solution at 37°C for 120 min.

GLUT1 [5] = target: GLUT1; set-up: method as in Burant and Bell, 1992; details: ref Burant and Bell, 1992; read-out: Ki of GLUT1 for glucose; cited from earlier work
[6] = set-up: method as in Li et al., 2007; details: rats, TPNS injection 10.0 mg/kg intravenous; ref Li et al., 2007; cited from earlier work

## O=C(CCc1ccc(O)cc1)c1c(O)cc(O)cc1O [phloretin]
rBMEC; phloretin 5 μM
  viability of rBMEC versus control (CCK-8): no statistically significant differences
[1]; phloretin 5 μM, 5-120 min, especially from min 30 to 120
  effect on cell-to-medium (C/M) ratio of Rb1, time course: significantly decreased
[1]; phloretin 5 μM, P < 0.01
  effect on Rb1 uptake into rBMEC versus control: significant decrease
GLUT1 [2]
  expression level of GLUT1 in rBMEC versus control: significantly lower
GLUT3
  expression level of GLUT3 in rBMEC versus control: no significant difference
GLUT1 [3]
  expression level of GLUT1 in brain versus untreated normal rats: significantly decreased

## CCCN(CCC)S(=O)(=O)c1ccc(C(=O)O)cc1 [probenecid]
rBMEC; probenecid 100 μM
  viability of rBMEC versus control (CCK-8): no statistically significant differences
[1]; probenecid 100 μM
  effect on Rb1 uptake into rBMEC versus control: no statistically significant differences

## OC[C@H]1OC(O)[C@H](O)[C@@H](O)[C@@H]1O (stereo partly drawn) [D-glucose]
GLUT1 [4]
  Ki: 885 µM
GLUT1 [5]
  Ki: ~1000 µM

## [N-]=[N+]=[N-].[Na+] [NaN3, sodium azide]
rBMEC; NaN3 500 μM
  viability of rBMEC versus control (CCK-8): no statistically significant differences
[1]; NaN3 500 μM
  effect on Rb1 uptake into rBMEC versus control: no statistically significant differences

## CC(C)=CCC[C@](C)(O[C@@H]1O[C@H](CO)[C@@H](O)[C@H](O)[C@H]1O)[C@H]1CC[C@]2(C)[C@@H]1[C@H](O)C[C@@H]1[C@@]3(C)CC[C@H](O)C(C)(C)[C@@H]3[C@@H](O[C@@H]3O[C@H](CO)[C@@H](O)[C@H](O)[C@H]3O)C[C@]12C [Rg1, ginsenoside Rg1]
[6]
  duration in brain tissue: ~1 h
  largest content in brain tissue: about 0.2 μg/g

## C=C1[C@@H](C)[C@H]2[C@H](Cc3ccccc3)NC(=O)[C@]23OC(=O)/C=C/C(=O)CCC[C@@H](C)C/C=C/[C@H]3[C@@H]1O [CsA, cytochalasin A]
rBMEC; CsA 25, 50 and 100 μM
  viability of rBMEC versus control (CCK-8): no statistically significant differences
[1]; CsA 25, 50 and 100 μM
  effect on Rb1 uptake into rBMEC versus control: no statistically significant differences
